Results from patent US6838416B2, “Herbicidal 5-benzyloxymethyl-1,2-isoxazoline derivatives” (Korea Research Institute of Chemical Technology, priority 2000, dated 2005).

Assays:
[1] = system: ORYSA (3-leaf stage); test: Assay for herbicidal activity, paddy pots: phytotoxicity to transplanted rice seedlings; format: in vivo, Oryza sativa L.
Description: (§1) To evaluate herbicidal activity against the paddy weeds in the paddy rice (ORYSA: Oryza sativa L.), the herbicidal activity of the compounds of the invention was compared to that of the compound No.109 (compound A) disclosed in U.S. Pat. […] The paddy weeds tested were ECHOR (Echinochloa crus-galli var. oryzicola), SCPJU (Scirpus juncoides ROXB), MOOVA (Monochoria vaginalis […] (Cyperus serotinus ROTTB), and SAGPY (Sagittaria pygmaea MTQ). The vessels employed were plastic pots having an area of 140 cm^2 and filled with a sandy loam soil containing 1.2% organic matter (pH 6).

[2] = system: CYPSE (tuber); test: Assay for herbicidal activity, paddy pots: CYPSE; format: in vivo, Cyperus serotinus ROTTB; settings: three weeks after application, 0 untreated control, 100 complete kill
Description: as §1

[3] = system: MOOVA (seed); test: Assay for herbicidal activity, paddy pots: MOOVA; format: in vivo, Monochoria vaginalis PRESL; settings: three weeks after application, 0 untreated control, 100 complete kill
Description: as §1

[4] = system: SCPJU (seed); test: Assay for herbicidal activity, paddy pots: SCPJU; format: in vivo, Scirpus juncoides ROXB; settings: three weeks after application, 0 untreated control, 100 complete kill
Description: as §1

[5] = system: ORYSA (seed); test: Assay for herbicidal activity, paddy pots: phytotoxicity to seeded (pregerminated) rice; format: in vivo, Oryza sativa L.
Description: as §1

[6] = system: SAGPY (tuber); test: Assay for herbicidal activity, paddy pots: SAGPY; format: in vivo, Sagittaria pygmaea MTQ; settings: three weeks after application, 0 untreated control, 100 complete kill
Description: as §1

[7] = system: ECHOR (seed); test: Assay for herbicidal activity, paddy pots: ECHOR; format: in vivo, Echinochloa crus-galli var. oryzicola; settings: three weeks after application, 0 untreated control, 100 complete kill
Description: as §1

[8] = 0.016 kg/ha, three weeks after application, 0 untreated control, 100 complete kill
[9] = 0.063 kg/ha, three weeks after application, 0 untreated control, 100 complete kill
[10] = 0.250 kg/ha, three weeks after application, 0 untreated control, 100 complete kill
[11] = 1.000 kg/ha, three weeks after application, 0 untreated control, 100 complete kill
[12] = 4.000 kg/ha, three weeks after application, 0 untreated control, 100 complete kill

Structure (SMILES) | CYPSE (tuber) herbicidal activity, visual percentage grading ([2]; 0.016 kg/ha) | CYPSE (tuber) herbicidal activity, visual percentage grading ([2]; 0.063 kg/ha) | CYPSE (tuber) herbicidal activity, visual percentage grading ([2]; 0.250 kg/ha) | CYPSE (tuber) herbicidal activity, visual percentage grading ([2]; 1.000 kg/ha) | CYPSE (tuber) herbicidal activity, visual percentage grading ([2]; 4.000 kg/ha) | MOOVA (seed) herbicidal activity, visual percentage grading ([3]; 0.016 kg/ha) | MOOVA (seed) herbicidal activity, visual percentage grading ([3]; 0.063 kg/ha) | MOOVA (seed) herbicidal activity, visual percentage grading ([3]; 0.250 kg/ha) | MOOVA (seed) herbicidal activity, visual percentage grading ([3]; 1.000 kg/ha) | MOOVA (seed) herbicidal activity, visual percentage grading ([3]; 4.000 kg/ha) | SCPJU (seed) herbicidal activity, visual percentage grading ([4]; 0.016 kg/ha) | SCPJU (seed) herbicidal activity, visual percentage grading ([4]; 0.063 kg/ha) | SCPJU (seed) herbicidal activity, visual percentage grading ([4]; 0.250 kg/ha) | SCPJU (seed) herbicidal activity, visual percentage grading ([4]; 1.000 kg/ha) | SCPJU (seed) herbicidal activity, visual percentage grading ([4]; 4.000 kg/ha) | SAGPY (tuber) herbicidal activity, visual percentage grading ([6]; 0.016 kg/ha) | SAGPY (tuber) herbicidal activity, visual percentage grading ([6]; 0.063 kg/ha) | SAGPY (tuber) herbicidal activity, visual percentage grading ([6]; 0.250 kg/ha) | SAGPY (tuber) herbicidal activity, visual percentage grading ([6]; 1.000 kg/ha) | SAGPY (tuber) herbicidal activity, visual percentage grading ([6]; 4.000 kg/ha) | also measured
Cc1ccsc1C1=NOC(C)(COCc2ccccc2F)C1 (centres unmarked) [EXAMPLE 6, 5-(2-fluorobenzyl)oxymethyl-5-methyl-3-(4-methylthiophene-5-yl)-1,2-isoxazoline] | 100% | 100% | 100% | 100% | 100% | 0% | 70% | 80% | 80% | 100% | 20% | 80% | 80% | 100% | 100% | 0% | 0% | 0% | 30% | 30% | ORYSA (3-leaf stage) phytotoxicity, visual percentage grading [1, 8]: 0%; ORYSA (3-leaf stage) phytotoxicity, visual percentage grading [1, 9]: 20%; ORYSA (3-leaf stage) phytotoxicity, visual percentage grading [1, 10]: 20%; ORYSA (3-leaf stage) phytotoxicity, visual percentage grading [1, 11]: 30%; ORYSA (3-leaf stage) phytotoxicity, visual percentage grading [1, 12]: 30%; ORYSA (seed) phytotoxicity, visual percentage grading [5, 8]: 0%; ORYSA (seed) phytotoxicity, visual percentage grading [5, 9]: 40%; ORYSA (seed) phytotoxicity, visual percentage grading [5, 10]: 100%; ORYSA (seed) phytotoxicity, visual percentage grading [5, 11]: 100%; ORYSA (seed) phytotoxicity, visual percentage grading [5, 12]: 100%; ECHOR (seed) herbicidal activity, visual percentage grading ([7]; 0.016 kg/ha): 20%; ECHOR (seed) herbicidal activity, visual percentage grading ([7]; 0.063 kg/ha): 100%; ECHOR (seed) herbicidal activity, visual percentage grading ([7]; 0.250 kg/ha): 100%; ECHOR (seed) herbicidal activity, visual percentage grading ([7]; 1.000 kg/ha): 100%; ECHOR (seed) herbicidal activity, visual percentage grading ([7]; 4.000 kg/ha): 100%
CC1(COCc2c(F)cccc2F)CC(c2ccc(Br)s2)=NO1 (centres unmarked) [EXAMPLE 11, 5-(2,6-difluorobenzyl)oxymethyl-5-methyl-3-(2-bromothiophene-5-yl)-1,2-isoxazoline] | 0% | 0% | 40% | 100% | 100% | 30% | 50% | 90% | 100% | 100% | 0% | 0% | 20% | 30% | 80% | 0% | 0% | 0% | 30% | 50% | ORYSA (3-leaf stage) phytotoxicity, visual percentage grading ([1]; in vivo): 0%; ECHOR (seed) herbicidal activity, visual percentage grading ([7]; 0.016 kg/ha): 20%; ECHOR (seed) herbicidal activity, visual percentage grading ([7]; 0.063 kg/ha): 70%; ECHOR (seed) herbicidal activity, visual percentage grading ([7]; 0.250 kg/ha): 100%; ECHOR (seed) herbicidal activity, visual percentage grading ([7]; 1.000 kg/ha): 100%; ECHOR (seed) herbicidal activity, visual percentage grading ([7]; 4.000 kg/ha): 100%
CC1(COCc2cccc(F)c2)CC(c2sccc2Br)=NO1 (centres unmarked) [EXAMPLE 18, 5-(3-fluorobenzyl)oxymethyl-5-methyl-3-(4-bromothiophene-5-yl)-1,2-isoxazoline] | 0% | 40% | 70% | 100% | 100% | 0% | 100% | 100% | 100% | 100% | 0% | 10% | 100% | 100% | 100% | 0% | 0% | 0% | 0% | 20% | ORYSA (3-leaf stage) phytotoxicity, visual percentage grading ([1]; in vivo): 0%; ORYSA (seed) phytotoxicity, visual percentage grading ([5]; in vivo): 100%; ECHOR (seed) herbicidal activity, visual percentage grading ([7]; 0.016 kg/ha): 0%; ECHOR (seed) herbicidal activity, visual percentage grading ([7]; 0.063 kg/ha): 60%; ECHOR (seed) herbicidal activity, visual percentage grading ([7]; 0.250 kg/ha): 100%; ECHOR (seed) herbicidal activity, visual percentage grading ([7]; 1.000 kg/ha): 100%; ECHOR (seed) herbicidal activity, visual percentage grading ([7]; 4.000 kg/ha): 100%
CC1(COCc2c(F)cccc2F)CC(c2ccc([N+](=O)[O-])s2)=NO1 (centres unmarked) [EXAMPLE 23, 5-(2,6-difluorobenzyl)oxymethyl-5-methyl-3-(2-nitrothiophene-5-yl)-1,2-isoxazoline] | 0% | 0% | 50% | 80% | 100% | 0% | 50% | 70% | 100% | 100% | 0% | 0% | 0% | 0% | 100% | 0% | 0% | 0% | 0% | 0% | ECHOR (seed) herbicidal activity, visual percentage grading ([7]; 0.016 kg/ha): 0%; ECHOR (seed) herbicidal activity, visual percentage grading ([7]; 0.063 kg/ha): 30%; ECHOR (seed) herbicidal activity, visual percentage grading ([7]; 0.250 kg/ha): 100%; ECHOR (seed) herbicidal activity, visual percentage grading ([7]; 1.000 kg/ha): 100%; ECHOR (seed) herbicidal activity, visual percentage grading ([7]; 4.000 kg/ha): 100%
